Test results reported in PMC6800772 (Molecular microbiology, 2019).
Structures can show the parent of a compound that is named as a salt.

Target: Pdr5 (Saccharomyces cerevisiae, UniProt P33302, A666G)
Assay: inhibition of R6G transport in whole cells
Type: cell-based

Pdr5, sequence (P33302 whole entry A666G): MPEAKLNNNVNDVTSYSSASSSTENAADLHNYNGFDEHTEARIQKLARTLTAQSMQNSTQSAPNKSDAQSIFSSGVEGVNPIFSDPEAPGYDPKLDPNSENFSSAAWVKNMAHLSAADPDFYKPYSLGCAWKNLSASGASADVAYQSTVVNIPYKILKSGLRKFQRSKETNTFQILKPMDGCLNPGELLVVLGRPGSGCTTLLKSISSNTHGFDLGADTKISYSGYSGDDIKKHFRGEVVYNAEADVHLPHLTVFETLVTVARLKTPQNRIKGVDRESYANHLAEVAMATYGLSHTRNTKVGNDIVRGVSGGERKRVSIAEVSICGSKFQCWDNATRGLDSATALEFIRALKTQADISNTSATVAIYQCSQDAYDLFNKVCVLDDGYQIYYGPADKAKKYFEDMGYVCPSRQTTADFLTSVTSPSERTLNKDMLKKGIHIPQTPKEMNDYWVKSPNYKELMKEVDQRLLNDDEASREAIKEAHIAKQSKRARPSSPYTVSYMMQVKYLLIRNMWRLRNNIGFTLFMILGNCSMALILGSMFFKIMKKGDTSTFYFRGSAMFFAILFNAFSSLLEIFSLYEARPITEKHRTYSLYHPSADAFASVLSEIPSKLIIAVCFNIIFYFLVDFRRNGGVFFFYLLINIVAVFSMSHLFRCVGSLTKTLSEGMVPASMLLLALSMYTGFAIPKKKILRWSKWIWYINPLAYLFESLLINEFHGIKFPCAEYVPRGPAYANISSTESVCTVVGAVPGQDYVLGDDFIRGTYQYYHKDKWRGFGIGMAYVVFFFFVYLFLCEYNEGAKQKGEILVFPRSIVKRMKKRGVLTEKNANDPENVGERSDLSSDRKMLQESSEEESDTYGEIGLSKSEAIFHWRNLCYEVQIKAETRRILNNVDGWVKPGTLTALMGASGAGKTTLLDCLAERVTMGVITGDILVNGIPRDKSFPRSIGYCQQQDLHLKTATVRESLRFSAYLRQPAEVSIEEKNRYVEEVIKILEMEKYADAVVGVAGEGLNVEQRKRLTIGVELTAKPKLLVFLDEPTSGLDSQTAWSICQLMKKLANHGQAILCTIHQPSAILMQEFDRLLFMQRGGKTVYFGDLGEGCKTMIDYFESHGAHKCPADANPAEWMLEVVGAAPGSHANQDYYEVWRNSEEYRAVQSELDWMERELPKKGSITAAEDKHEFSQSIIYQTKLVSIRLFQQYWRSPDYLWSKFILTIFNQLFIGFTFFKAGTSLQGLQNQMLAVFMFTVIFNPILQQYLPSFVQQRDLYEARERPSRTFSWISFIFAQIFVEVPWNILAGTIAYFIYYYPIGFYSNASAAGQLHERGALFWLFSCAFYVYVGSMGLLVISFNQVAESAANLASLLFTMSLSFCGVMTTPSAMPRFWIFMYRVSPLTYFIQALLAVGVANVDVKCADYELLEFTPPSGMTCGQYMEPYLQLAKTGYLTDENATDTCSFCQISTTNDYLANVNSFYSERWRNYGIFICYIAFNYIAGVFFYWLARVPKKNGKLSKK

C=CCOC(Cn1ccnc1)c1ccc(Cl)cc1Cl (stereo not shown) [imazalil sulfate]
IC50: ~100 µM
